Assay results as given in US9403850B2, “Beta-lactamase inhibitors” (priority 2013, dated 2016).

Key:
[1] = test system: P. aeruginosa Ps296 expressing VIM-2; assay: Broth microdilution MIC assay, partner meropenem; format: cell-based; details: Pseudomonas aeruginosa, read-out: MIC of Exemplary Compounds in presence of fixed β-lactams, Fixed Mero, P. aerug. Ps296 VIM-2
[2] = test system: E. coli ESBL4 expressing CTX-M-15; assay: Broth microdilution MIC assay, partner ceftazidime;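 also: ceftazidime held fixed at 4 µg/mL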; format: cell-based; details: Escherichia coli, read-out: MIC of Exemplary Compounds in presence of fixed β-lactams, Fixed CAZ, E. coli ESBL4 CTX-M-15
[3] = test system: E. cloacae 144200 expressing Class C P99 AmpC; assay: Broth microdilution MIC assay, partner ceftazidime;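 also: ceftazidime held fixed at 4 µg/mL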; format: cell-based; details: Enterobacter cloacae, read-out: MIC of Exemplary Compounds in presence of fixed β-lactams, Fixed CAZ, E. cl. 144200 p99 AmpC
VIM-2 = target: T1, VIM-2 (Escherichia coli, UniProt Q5U7L7); assay: β-Lactamase enzyme inhibition assay, VIM-2 (nitrocefin substrate); format: biochemical; details: nitrocefin substrate 100 μM, 15 min preincubation at 37° C.; read-out: IC50, Class B VIM-2
T1 construct: made in house; host or cells: E. coli BL21(DE3)
Experimental: For Vim-2 metallo β-lactamase, the procedure was identical with the following exceptions, first the protein was not pH adjusted to pH 5 with 50 mM sodium acetate, second, the chromatography step was changed to a 5 ml Q sepharose anion exchange column pre-equilibrated with 50 mM Hepes pH 7.5, and elution of the protein was achieved by a linear gradient of NaCl (0-600 mM). Finally, the VIM-2 purification required a second run (3rd step) on the Q sepharose anion exchange column to achieve acceptable purity (>90%).
An equal volume of diluted enzyme stock was added, and the plates were incubated at 37° C. for 15 min. Nitrocefin was used as substrate for p99 AmpC, VIM-2 and OXA-1 and dispensed into each well at a final concentration of 100 μM. Absorbance at 486 nm was immediately monitored for 10 min using a Biotek Powerwave XS2 microplate spectrophotometer using the GEN5 softweare package (Biotek Instruments, Winooski Vt.). In an analogous fashion, imipenem was used as substrate for Kpc-2 and Cefotaxime was used for SHV-5, while changes in absorbance upon hydrolysis of the β-lactam ring were monitored at 300 nm and 260 nm respectively in UV-transparent 96-well microtiter assay plates. Maximum rates of hydrolysis were compared to those in control wells (without inhibitors), and percentages of enzyme inhibition were calculated for each concentration of inhibitor. The concentration of inhibitor needed to reduce the initial rate of hydrolysis of substrate by 50% (IC50) was calculated as the residual activity of β-lactamase at 486 nm using GraFit version 7 kinetics software package (Erithacus Software, Surrey, UK).
Using the methodology described above, examples of the current invention were evaluated for their ability to inhibit β-lactamase enzymes from all four Ambler classifications (A through D). […] NT=Not tested.

[4] = test system: K. pneumoniae A-1797 expressing KPC-2 and VIM-4; assay: Broth microdilution MIC assay, partner meropenem; format: cell-based; details: Klebsiella pneumoniae, read-out: MIC of Exemplary Compounds in presence of fixed β-lactams, Fixed Mero, K.P. A-1797 KPC-2 VIM-4
[5] = test system: S. aureus MSSA-7 producing penicillinase PC-1; assay: Broth microdilution MIC assay, partner piperacillin; format: cell-based; details: Staphylococcus aureus, fixed piperacillin 4 μg/mL, read-out: MIC of Exemplary Compounds in presence of fixed β-lactams, Fixed Pip, S. aureus MSSA-7 PC-1
[6] = test system: K. pneumoniae 156319 expressing KPC-3; assay: Broth microdilution MIC assay, partner meropenem; format: cell-based; details: Klebsiella pneumoniae, read-out: MIC of Exemplary Compounds in presence of fixed β-lactams, Fixed Mero, K.P. 156319 KPC-3

SMILES	MIC [1] [µg/mL]	MIC [2] [µg/mL]	MIC [3] [µg/mL]	IC50 (VIM-2) [nM]	MIC [4] [µg/mL]	MIC [5] [µg/mL]	MIC [6] [µg/mL]
CN(C)Cc1ccc(C(=O)N[C@H]2Cc3cccc(C(=O)O)c3OB2O)cc1N [Example 18, (R)-3-(3-amino-4-((dimethylamino)methyl)benzamido)-2-hydroxy-3,4-dihydro-2H-benzo[e][1,2]oxaborinine-8-carboxylic acid]	< 4	< 4	< 4	100 to 1000	< 4	< 4	< 4
CNCc1ccc(C(=O)N[C@H]2Cc3cccc(C(=O)O)c3OB2O)cc1CNC [Example 19, (R)-3-(3,4-bis((methylamino)methyl)benzamido)-2-hydroxy-3,4-dihydro-2H-benzo[e][1,2]oxaborinine-8-carboxylic acid]	< 4	< 4	< 4	< 100	< 4	< 4	< 4
NCc1ccc(CC(=O)N[C@H]2Cc3cccc(C(=O)O)c3OB2O)cc1CN [Example 20, (R)-3-(2-(3,4-bis(aminomethyl)phenyl)acetamido)-2-hydroxy-3,4-dihydro-2H-benzo[e][1,2]oxaborinine-8-carboxylic acid]	< 4	< 4	< 4	< 100	< 4	< 4	< 4
CN(C)Cc1ccc(C(=O)N[C@H]2Cc3cccc(C(=O)O)c3OB2O)cc1NC(=O)[C@@H](N)CN [Example 21, (R)-3-(3-((S)-2,3-diaminopropanamido)-4-((dimethylamino)methyl)benzamido)-2-hydroxy-3,4-dihydro-2H-benzo[e][1,2]oxaborinine-8-carboxylic acid]	> 32	< 4	< 4	< 100	8 to 32	8 to 32	8 to 32
Cc1ccc(C(=O)N[C@H]2Cc3cccc(C(=O)O)c3OB2O)cc1NC(=O)[C@@H](N)CN [Example 22, (R)-3-(3-((S)-2,3-diaminopropanamido)-4-methylbenzamido)-2-hydroxy-3,4-dihydro-2H-benzo[e][1,2]oxaborinine-8-carboxylic acid]	> 32	< 4	< 4	100 to 1000	8 to 32	< 4	< 4
Cc1ccc(C(=O)N[C@H]2Cc3cccc(C(=O)O)c3OB2O)cc1N [Example 23, (R)-3-(3-amino-4-methylbenzamido)-2-hydroxy-3,4-dihydro-2H-benzo[e][1,2]oxaborinine-8-carboxylic acid]	8 to 32	< 4	< 4	100 to 1000	8 to 32	< 4	< 4
O=C(N[C@H]1Cc2cccc(C(=O)O)c2OB1O)c1ccc(-c2ccccn2)cc1 [Example 24, (R)-2-hydroxy-3-(4-(pyridin-2-yl)benzamido)-3,4-dihydro-2H-benzo[e][1,2]oxaborinine-8-carboxylic acid]	8 to 32	< 4	< 4	100 to 1000	8 to 32	< 4	8 to 32
N=C(N)NCc1ccc(C(=O)N[C@H]2Cc3cccc(C(=O)O)c3OB2O)cc1CNC(=N)N [Example 25, (R)-3-(3,4-bis(guanidinomethyl)benzamido)-2-hydroxy-3,4-dihydro-2H-benzo[e][1,2]oxaborinine-8-carboxylic acid]	< 4	< 4	< 4	< 100	< 4	< 4	< 4
O=C(N[C@H]1Cc2cccc(C(=O)O)c2OB1O)c1ccc2[nH]ccc2c1 [Example 26, (R)-2-hydroxy-3-(1H-indole-5-carboxamido)-3,4-dihydro-2H-benzo[e][1,2]oxaborinine-8-carboxylic acid]	8 to 32	< 4	< 4	100 to 1000	8 to 32	< 4	< 4
